According to patent publication US10197563B2, “3-D in vitro model for breast cancer dormancy” (New Jersey Institute of Technology, priority 2015, dated 2019):

Columns and labels:
MDA-MB-231 cells [1] = conditions: treated cells
MDA-MB-231 cells [2] = assay: Carboplatin survival curve for chemotherapy treated and non-treated cells; format: cell-based; conditions: for percent viability: 220 μg/ml carboplatin
Description: (§1) For determination of cell viability, treated as well as non-treated cells were used. MDA-MB-231 and T47D cells were seeded in T-175 tissue culture flasks. At 80% confluency, the growth media was replaced with fresh media containing different concentrations of carboplatin for 48 and 72 h. All experiments were repeated twice. After treatment, the culture media was collected in a 50 ml centrifugation tube, since it might contain dead cells necessary for cell counts. The cell monolayer was washed with PBS and then collected in the same tube. Cells were treated with Trypsin and, Trypsin with the cells was collected in the same 50 ml tube. The suspension was centrifuged (5 min, 1200 rpm) and the supernatant removed. The pellet was washed with PBS, centrifuged (5 min, 1200 rpm) and re-suspended again in complete culture media. Then, a small aliquot of the cell suspension (25 μl) was mixed with the same volume of 0.4% trypan blue (Sigma) solution and the sample was counted after 2 min of staining using a haemocytometer. The number of bright (viable) cells and blue cells (non-viable) were evaluated using a light microscope with a 20-fold magnification. After counting, the cell viability (CV) was expressed as the percentage of surviving cells compared to the total number of cells: CV=(viable cells/total number of cells)×100.
(§2) The concentrations of drugs that were finally toxic to at least 50% of the cell population (IC50/cytotoxicity) were determined. Then, studies were performed looking at viability over the full range of carboplatin concentrations and compared to non-treated BCCs. At day 3-post treatment, viable resistant BCCs were selected and counted using standard protocols for downstream experiments on scaffolds.

MDA-MB-231 cells [3] = assay: Morphology of cells post addition of carboplatin; format: cell-based
Description: For these studies carboplatin sensitivity of MDA-MB-231 cells was investigated as previously mentioned. Different subpopulations were obtained for subsequent studies on scaffolds. Under normal condition, BCCs population in culture can be seen to be composed of a heterogeneous population of giant multi-nucleated cells mixed with small single-nucleated cells (FIGS. 38a and b.). […] Therefore, cells at 3-4 days post treatment were selected as being carboplatin resistant MDA-MB-231 cells.

[4] = system: MDA-MB-231 and T47D cells; assay: Western blots of breast cancer cell lines with increasing carboplatin dosage; format: cell-based; conditions: with increased carboplatin concentration
Description: Western blot was performed to detect the following proteins: Bax, Bcl-2, Oct-4 and Sox-2 for BCCs on scaffolds. Briefly, whole cell extracts were prepared with the NP-40 buffer and nuclear/cytoplasmic extracts with NE-PER Nuclear and Cytoplasmic Extraction kit. BCC extracts (20 μg) were subjected to electrophoresis on 4-20% SDS-PAGE (Bio-Rad; Hercules, Calif.). Proteins were transferred to PVDF membranes, and membranes were incubated overnight in the respective primary antibodies. This was followed by 2 h incubation with HRP-conjugated secondary antibodies at 1:2000 final dilutions. The latter was detected with chemiluminescence. Membranes were stripped with Restore Western Blot Stripping Buffer and then re-probed for other proteins, including β-actin mAb (1:4000 dilution). All bands were normalized to β-actin.

T47D cells [5] = assay: Flow cytometry of CD44/CD24 expression of carboplatin treated cells; format: cell-based
T47D cells [6] = assay: Carboplatin cytotoxicity, trypan blue test; format: cell-based
Description: as §1, §2

MDA-MB-231 cells [7] = assay: Carboplatin cytotoxicity, trypan blue test; format: cell-based
Description: as §1, §2

[8] = 2 days post treatment, maximum carboplatin concentration of 50 μg/ml
[9] = 3 days post treatment, 50 μg/ml carboplatin

Which “CD44^+/CD24^+ cells” value (MDA-MB-231 cells [1]) does the source give for `N.N.O=C([O-])C1(C(=O)[O-])CCC1.[Pt+2]` [carboplatin] here?
The value was 81.4%.

What about the “CD44^+/CD24^− cells” value (MDA-MB-231 cells [1]) of the same compound?
Its value is 18%.

What about the “CD44^−/CD24^+ cells” value (MDA-MB-231 cells [1]) of the same compound?
The value was 0.09%.

And the “CD44^−/CD24^− cells” value (MDA-MB-231 cells [1])?
The value was 0.51%.

What about the “difference in percent viability between non-treated and treated cells” value (MDA-MB-231 cells [2]; 0 to 100 μg/ml carboplatin) of the same compound?
The value was “no significant difference”.

What about the percent viability (MDA-MB-231 cells [2]; chemo-treated cells) of the same compound?
Its percent viability is 80%.

And the percent viability (MDA-MB-231 cells [2]; non-treated cells)?
The percent viability was 20%.

What about the “decrease in percent viability” value (MDA-MB-231 cells [2]; non-treated cells, 100 to 120 μg/ml carboplatin) of the same compound?
Its value is 30%.

What about the “decrease in percent viability” value (MDA-MB-231 cells [2]; non-treated cells, 140 to 170 μg/ml carboplatin) of the same compound?
Its value is 40%.

What about the “decrease in percent viability” value (MDA-MB-231 cells [2]; non-treated cells, 170 to 220 μg/ml carboplatin) of the same compound?
Its value is 80%.

And the “decrease in percent viability” value (MDA-MB-231 cells [2]; treated (chemoresistant) cells, 100 to 120 μg/ml carboplatin)?
The value was 10%.

And the “decrease in percent viability” value (MDA-MB-231 cells [2]; treated (chemoresistant) cells, 140 to 170 μg/ml carboplatin)?
The value was 20%.

And the “decrease in percent viability” value (MDA-MB-231 cells [2]; treated (chemoresistant) cells, 170 to 220 μg/ml carboplatin)?
Its value is 20%.

What about the cell morphology (MDA-MB-231 cells [3]; 7 days post carboplatin treatment) of the same compound?
The cell morphology was “fragmented and appeared to be dying”.

What about the “giant multi-nucleated cells in culture” value (MDA-MB-231 cells [3]; several hours post treatment with carboplatin) of the same compound?
The value was “no longer present”.

And the Bcl-2 expression [4]?
The Bcl-2 expression was “increased”.

What about the Oct-4 expression [4] of the same compound?
The Oct-4 expression was “increased”.

What about the Sox2 expression [4] of the same compound?
The Sox2 expression was “increased”.

What about the “CD44^+/CD24^+ cells” value (T47D cells [5]) of the same compound?
Its value is 29%.

And the “CD44^+/CD24^− cells” value (T47D cells [5])?
The value was 0.01%.

What about the “CD44^−/CD24^− cells” value (T47D cells [5]) of the same compound?
Its value is 0.99%.

What about the “CD44^−/low/CD24^+ cells” value (T47D cells [5]) of the same compound?
Its value is 70%.

And the death (T47D cells [6]; [8])?
The death was 28%.

And the death (T47D cells [6]; [9])?
The death was 48%.

And the death (MDA-MB-231 cells [7]; [8])?
Its death is 17%.

What about the death (MDA-MB-231 cells [7]; [9]) of the same compound?
Its death is 25%.
